This is an account of results in patent publication US10745778B2, “Leaching aids and methods of using leaching aids” (BASF SE, priority 2015, dated 2020).

This data set in a line: Surface tension of synthetic pregnant leaching solution (Example 4). Format: physicochemical. Conditions: synthetic PLS 6 g/L copper, 2 g/L iron, pH about 2.0. As for the experimental part:
This example investigated a method for determining the impact of a leaching aid on the surface tension of a typical leaching solution. A synthetic pregnant leaching solution (“PLS”) of 6 g/L copper and 2 g/L iron at a pH of about 2.0 was prepared in deionized (“DI”) water to form a quality control (“QC”) feed. To this, mixtures of synthetic PLS having varying levels of Leach aid A (i.e., MC1000) or Leach Aid B (i.e., TMP-7(EO)) were prepared and the surface tension of each solution was measured.

In the case of `CCCCCCCCCC[N+](C)(C)CC(=O)[O-]` [MC1000], the “surface tension as a function of concentration of the leaching aid” value is “decreased with increasing concentration”.
